Where two headings read alike, the source gives them in different places.
Tests used:
[1] = molecular target: T1, Mnk1 (Homo sapiens, UniProt Q9BUB5); assay: Streptavidin-agarose pull-down with biotinylated VNLG-152R; assay type: binding; conditions: 50 µg
T1 construct: incubated with recombinant full length Mnk1 proteins or cell lysates overnight at 4 °C; GST
Protocol: The streptavidin–agarose pull-down assay was performed as described previously. Biotin-VNLG-152R (50 µg) and biotin (50 µg; negative control) were preincubated with streptavidin agarose beads (Invitrogen, Waltham, MA, USA) overnight at 4 °C. The biotin-VNLG-152R-conjugated beads were washed three times with cold PBS and then incubated with recombinant full length Mnk1 proteins or cell lysates overnight at 4 °C. The bead-bound proteins were incubated and separated on a 10% SDS-PAGE and detected by western blot analysis for Mnk1.

[2] = tested on: panel of 6 human TNBC cell lines; assay: MTT cell growth assay, summary over the panel; assay type: cell-based; conditions: 7 days
Protocol: Figure 3 In vitro characterization, pharmacokinetics and toxicity profile of VNLG-152R and its two enantiomers. (A) HPLC chromatograms racemic VNLG-152R (left panel) and the resolved enantiomers VNLG-152E1 and VNLG-152E2 (right panel). The conditions of HPLC procedure are presented in Supplementary Materials. (B) Table summarizing GI50 values (µM) each cell line treated with VNLG-152R and its enantiomers. TNBC cell subtypes were treated with listed compound (0.1 nmol/L–100 µmol/L) for 7 days and the GI50 values for the anti-proliferative effects of the compounds were determined from dose response curves (by a nonlinear regression analysis using Graph Pad Prism). Data represents the results from six independent experiments for each cell line. (C) Plasma concentration versus time profile after intravenous (IV, 2 mg/kg each, top panel) or oral (PO, 20 mg/kg each, bottom panel) of VNLG-152R (red), VNLG-152E1 (purple) and VNLG-152E2 (blue) to female CD1 mice. Values represent the mean plasma concentrations from three mice per time point. (D) Table of the pharmacokinetic parameters of various compounds after IV and PO dosing. AUC = area under the curve, T1/2 = elimination half-life, Cmax = maximum plasma concentration, F (%) = oral bioavailability. (E) Effects of VNLG-152R, VNLG-152E1 and VNLG-152E2 on body weight and clinical observations at chronic dose termination of study. Three different doses, i.e., 10, 25, and 50 mg/kg/day (formulated in 40% β-cyclodextrin in saline) of each compound were administered daily by oral gavage for 14 days. Each group consisted of three mice. Loss in body weight, a clinical sign of toxicity was observed during the 14 days of dosing and the maximum tolerated dose (MTD) was estimated following established procedures. Changes in body weight were scored on a scale of 0–4 as follows as described under methods. […]

[3] = Plasma pharmacokinetics after single IV and PO dosing; assay type: in vivo, female CD1 mice; conditions: mouse, in vivo
Protocol: 5. In vivo Pharmacokinetics (PK) Determination: These studies were Performed by Charles River Laboratories (CRL), Discovery Services, 251 Ballardvale Street, Wilmington, MA 01887, USA.
The PK studies were performed according to the guidelines and approval of CRL Institutional Animal Care and Use Committee (IACUC) under IACUC approval no: P04172013.
A total of sixty‐four naïve female CD‐1 mice (including 6 spare animals) were received from Charles River Laboratories, Kingston, NY. Following an acclimation period, the animals were assigned to the study based on acceptable health as determined by a staff veterinarian. For dosing, animals were placed into six groups as detailed in the study design table below. All animals were fasted overnight prior to dosing and food was returned after the 4‐h post‐dose blood collections.
Each animal in Groups 1, 3 and 5 received a single administration of prepared test article by intravenous tail administration at a target dose level of 2 mg/kg and dose volume of 10 mL/kg. Each animal in Groups 2, 4 and 6 received a single administration of prepared test article by oral gavage at a target dose level of 20 mg/kg and at a dose volume of 10 mL/kg. Dosing was performed on August 13, 2015 as detailed in the study protocol and was completed without incident. Dose administration […]
Following dosing and at each sample collection time
Group Mices Test Compound Level Conc. Volume Dose Vehicle Route […]
Interim blood samples were collected in a leapfrog design from each animal by puncture of a submandibular vein and a terminal blood sample was collected from each animal by intracardiac puncture following euthanasia with CO2 as outlined in the sample collection table below.
All blood samples were transferred into tubes containing K2EDTA anticoagulant and placed on wet ice immediately after collection until centrifuged at 2200 × g for 10 min at […] to isolate plasma.
The resulting plasma was transferred to individual polypropylene tubes in a 96‐well plate format and immediately placed on dry ice until storage at nominally […] before transfer to the Test Facility’s bioanalysis group for concentration and HPLC analysis. Individual blood collection times are […]
Table S4. Sample Collections.
Collection Information Whole Blood for Plasma Whole Blood for Plasma
Subgroup A (n = 3) 5 min & 1 h post‐dose 8 h post‐dose
Subgroup B (n = 3) 15 min & 4 h post‐dose 12 h post‐dose
Subgroup C (n = 3) 30 min & 6 h post‐dose 24 h post‐dose
Subgroup D (n = 2) Not applicable 2 h post‐dose
Subgroup A (n = 3) 15 min & 2 h post‐dose 8 h post‐dose
Subgroup B (n = 3) 30 min & 4 h post‐dose 12 h post‐dose
Subgroup C (n = 3) 1 hr & 6 h post‐dose 24 h post‐dose
Collection conditions K2EDTA K2EDTA
Collection route Submandibular Intracardiac puncture
Volume/Time point 100 μL Maximum volume
The plasma samples for Groups 1‐6, Subgroups A‐C were analyzed for test article concentration using a Research Grade LC MS/MS Assay (RGA‐Level 1). The bioanalytical report, including plasma […]
Pharmacokinetic parameters were estimated from the plasma concentration‐time data using standard non‐compartmental methods and utilizing suitable analysis software (Watson 7.2 Bioanalytical LIMS, Thermo Electron Corp). Parameters were estimated using nominal sampling times relative to the start of each dose administration (within an acceptable tolerance limit).
Concentrations below the limit of quantification were excluded from the pharmacokinetic analysis.
The area under the plasma test item concentration versus time curve (AUC) was calculated using the linear‐log‐linear trapezoidal method. When practical, the terminal elimination phase of each concentration versus time curve was identified using at least the final three observed concentration values. The slope of the terminal elimination phase was determined using log linear regression on the unweighted concentration data.
Parameter Description of Parameter […]

[4] = 14-day oral toxicity / MTD study; set-up: species or system female athymic nude mice; conditions: mouse, in vivo, po
Protocol: Three different doses, i.e., 10, 25, and 50 mg/kg/day (formulated in 40% β-cyclodextrin in saline) of each compound were administered daily by oral gavage for 14 days. Each group consisted of 3 mice. Their body weight kinetics (loss in body weight, a clinical sign of toxicity) was observed during the 14 days of dosing following established procedures. Changes in body weight were scored on a scale of 0–4 as follows: (1) Weight loss: (10 g = 4, 7–9 g = 3, 4–6 g = 2, 1–3 g = 1; severe = 3, moderate = 2, slight = 1, none = 0).

[5] = tested on: MDA-MB-231 xenografts; assay: MDA-MB-231 xenograft, racemate vs enantiomers, IP vs PO; assay type: in vivo, nude mice; conditions: 20 mg/kg per day PO, 36 days
Protocol: The second experiment designed to compare heal-to-head IP versus oral dosing (PO) and the efficacy of racemic VNLG-152 versus its two enantiomers was like that described above but consisted of eight groups. When the tumor volumes had reached about 100 mm^3, the mice were randomly divided into 8 groups of 5 mice each. The two control groups received vehicle (IP or OP) and the other six groups received VNLG-152R (20 mg/kg, IP or PO, once daily), VNLG-152E1 (20 mg/kg, IP or PO, once daily), and VNLG-152E2 (20 mg/kg, IP or PO, once daily) five days/week. These treatments continued for 36 days and the tumors were measured and processed as described above.

[6] = tested on: Br-001 xenograft tumors; assay: Patient-derived TNBC xenograft (PDX), PO, racemate vs E1; assay type: in vivo, NSG mice; conditions: 20 mg/kg PO
Protocol: The second PDX tumor model experiment was conducted to assess the efficacy of VNLG-152R versus VNLG-152E1 following PO administration. When the tumor volumes had reached about 100 mm^3, the mice were randomly divided into three groups of five mice each. The control group received vehicle (PO) and the other two groups received VNLG-152R (20 mg/kg, PO, once daily), and VNLG-152E1 (20 mg/kg, PO, once daily) five days/week. These treatments continued for 15 days and the tumors were measured and processed as described above.

[7] = tested on: MDA-MB-231 cells; assay: Head-to-head MTT antiproliferative assay, 6-day exposure; assay type: cell-based, human; conditions: Homo sapiens, MDA-MB-231, 144 h
Protocol: (§1) Figure 2 VNLG-152R inhibits mTORC1 signaling and the production of pro-inflammatory cytokines. (A) MDA-MB-231 and MDA-MB-468 cells were treated with the indicated concentrations of VNLG-152R for 72 h. Cell lysates were analyzed by immunoblotting with the indicated antibodies. (B) Head-to-head antiproliferative effects of VNLG-152R and eFT508 on MDA-MB-231 and MDA-MB-468 cells. The dose-response curves were generated from MTT assays after 6-day exposure to different concentrations of the compounds. Each point is a mean of replicates from three independent experiments. (C–E) MDA-MB-231 cell were treated with the indicated concentration of VNLG-152R or eFT508 for 72 h. Cell supernatants were collected, and the indicated cytokines were quantitated by Multiplex Luminex assay.
(§2) Cell growth inhibition assay was performed as described previously. For cell growth experiment, cells were treated with the VNLG-152R, VNLG-152E1 or VNLG-15E2 for 7 days. MTT assay was performed at the end of the experiment. Results represent the mean ± standard deviation of three independent experiments.

[8] = tested on: MDA-MB-468 cells; assay: as above; assay type: cell-based, human; conditions: Homo sapiens, MDA-MB-468, 144 h
Protocol: as §1, §2

[9] = tested on: MDA-MB-231 cells; assay: Multiplex Luminex supernatant cytokine analysis; assay type: cell-based, human; conditions: 72 h, cell supernatants
Protocol: Supernatants from the MDA-MB-231 (TNBC) cells in Fetal Bovine Serum (FBS) containing media were treated with various concentrations of VNLG-12R for 72 h, were collected, and various cytokines and growth factor concentrations (CLCX-1, IL-6, IL8 and TNF-α) were determined by Luminex multiplex assay kit (Millipore, Billerica, MA, USA) according to the manufacturer’s instructions. The expressions of secreted cytokines were read on Luminex 100 reader. The data was then analyzed using the BioPlex Software (BioRad, Hercules, CA, USA). The Luminex multiplex assays were conducted at the University of Maryland School of Medicine Cytokine Core Laboratory (Baltimore, MD, USA).

[10] = mean over 6 TNBC cell lines, read-out: average GI50
[11] = range over 6 TNBC cell lines, read-out: range of GI50

T1 sequence (Q9BUB5 whole entry): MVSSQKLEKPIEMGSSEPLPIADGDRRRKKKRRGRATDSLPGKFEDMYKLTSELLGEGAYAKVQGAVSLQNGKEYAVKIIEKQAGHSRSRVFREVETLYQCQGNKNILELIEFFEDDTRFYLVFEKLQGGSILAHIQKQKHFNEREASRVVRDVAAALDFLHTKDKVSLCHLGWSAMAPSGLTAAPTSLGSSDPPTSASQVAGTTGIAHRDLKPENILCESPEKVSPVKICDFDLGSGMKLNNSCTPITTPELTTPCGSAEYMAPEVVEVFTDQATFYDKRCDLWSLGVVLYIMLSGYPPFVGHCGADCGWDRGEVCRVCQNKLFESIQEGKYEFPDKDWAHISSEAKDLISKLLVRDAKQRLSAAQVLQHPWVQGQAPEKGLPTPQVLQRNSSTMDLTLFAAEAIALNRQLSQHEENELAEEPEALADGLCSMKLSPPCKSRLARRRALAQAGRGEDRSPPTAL

| GI50 [7] | GI50 [8] | Compound | Mnk1 captured in streptavidin pull-down ([1]; MDA-MB-231 cells) | Mnk1 captured in streptavidin pull-down ([1]; recombinant Mnk1 protein) | GI50 [2, 10] | GI50 [2, 11] | F (%) oral bioavailability [3] | AUC(0-inf) ([3]; iv, 2 mg/kg) | T1/2 ([3]; iv, 2 mg/kg) | AUC(0-inf) ([3]; po, 20 mg/kg) | Cmax ([3]; po, 20 mg/kg) | T1/2 ([3]; po, 20 mg/kg) | maximum tolerated dose (MTD) [4] | TGI [5] | changes in body weights [6] | TGI ([6]; 5 days per week, 15 days) | secreted IL-6 and IL-8, TNFα and chemokine CXCL1 [9] | secretion of CXCL1 [9] |
| --- | --- | --- | --- | --- | --- | --- | --- | --- | --- | --- | --- | --- | --- | --- | --- | --- | --- | --- |
| – | – | CC1=C(/C=C/C(C)=C/C=C/C(C)=C/C(=O)N(CCOC(=O)CCCC[C@@H]2SC[C@@H]3NC(=O)N[C@@H]32)c2ccc(F)cc2)C(C)(C)CCC1n1ccnc1 (stereo partly drawn) [VNLG-152R-biotin] | direct binding of Mnk1 to VNLG-152R-biotin in MDA-MB-231 cells | substantial amounts of Mnk1 was found only in the VNLG-152R-biotin-treated sample | – | – | – | – | – | – | – | – | – | – | – | – | – | – |
| – | – | CC1=C(/C=C/C(C)=C/C=C/C(C)=C/C(=O)Nc2ccc(F)cc2)C(C)(C)CCC1n1ccnc1 (single isomer, unassigned) [VNLG-152E1] | – | – | 2.3 µM | 0.98 to 4.79 µM | 161.9% | 2100 ng·h/mL | 1.78 h | 34000 ng·h/mL | 4880 ng/mL | 4.49 h | > 50 mg/kg | 78% | No changes in body weights were observed | 79% | – | – |
| 7.07 µM | 52.5 µM | Cc1cc(Nc2cc(N)ncn2)c(=O)n2c1C(=O)NC21CCCCC1.Cl [eFT508, 6′-[(6-aminopyrimidin-4-yl)amino]-8′-methyl-2′Hspiro[cyclohexane-1,3′-imidazo-[1,5-a]pyridine]-1′,5′-dione hydrochloride (1:1), reference compound] | – | – | – | – | – | – | – | – | – | – | – | – | – | – | dose-dependent reduction | seem to stimulate secretion of CXCL1 |
| – | – | CC1=C(/C=C/C(C)=C/C=C/C(C)=C/C(=O)Nc2ccc(F)cc2)C(C)(C)CCC1n1ccnc1 (single isomer, unassigned) [VNLG-152E2] | – | – | 0.39 µM | 0.1 to 1.17 µM | 72.8% | 1840 ng·h/mL | 1.10 h | 13400 ng·h/mL | 3590 ng/mL | 4.02 h | > 50 mg/kg | – | – | – | – | – |

— article PMC6468747 (Cancers, 2019)
